Earlier results as cited in US11925179B2, “Glyphosate formulations containing amidoalkylamine surfactants” (Monsanto Technology LLC, priority 2008, dated 2024).

Settings: glyphosate in its acid form, 25° C.

Structure (SMILES): O=C(O)CNCP(=O)(O)O [glyphosate, N-phosphonomethylglycine]
- solubility in water: 1.16 % by weight
